Data published in paper PMC7489219 (Molecular Brain, 2020).
Where a name gives a salt, the structure may show the parent alone.

Each compound was assayed on T1, primary mouse cortical neurons (assay: cells). Conditions: Cortical neurone, 20 h, read-out: % inhibition, inhibition of NMDA-induced cell death (protection score), 30 min pre-treatment.
T1 construct: primary cortical neurons, DIV 10
Design: Protection from NMDA-induced (30 uM, 10 min) neuronal death; Hoechst nuclear morphology by automated microscopy
Outline: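 On DIV 10, primary mouse cortical neurons were given compound at 10 μM for 30 min at 37 °C, then 30 μM NMDA for 10 min, washed, and kept 20 h with compound. Dead cells were scored by nuclear morphology, and % protection was derived from survival relative to vehicle + NMDA and untreated controls.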

| Structure (SMILES) | inhibition at 10 µM [%] |
| --- | --- |
| CC(=O)[C@H]1CC[C@H]2[C@@H]3CCC4=CC(=O)CC[C@]4(C)[C@H]3CC[C@]12C [Progesterone (Prometrium)] | 7.11 |
| C=C1C(=O)O[C@H]2[C@H]1CC/C(C)=C/CC[C@@]1(C)O[C@@H]21 [Parthenolide ((-)-Parthenolide)] | -3.83 |
| CC1(C)O[C@@H]2[C@@H](CO[C@@]3(COS(N)(=O)=O)OC(C)(C)O[C@@H]23)O1 [Topiramate] | 11.4 |
| C=C1c2cccc(O)c2C(O)=C2C(=O)[C@]3(O)C(O)=C(C(N)=O)C(=O)[C@@H](N(C)C)[C@@H]3[C@@H](O)[C@H]12 [Methacycline hydrochloride (Physiomycine)] | 13.5 |
| C[C@H]1[C@H](NC(=O)/C(=N\OC(C)(C)C(=O)O)c2csc(N)n2)C(=O)N1S(=O)(=O)O [Aztreonam (Azactam, Cayston)] | -1.22 |
| C#C[C@]1(O)CC[C@H]2[C@@H]3CCc4cc(OC)ccc4[C@H]3CC[C@@]21C [Mestranol] | 11.8 |
| CC(C(=O)O)c1ccc(-c2ccccc2)c(F)c1 (stereo not shown) [Flurbiprofen (Ansaid)] | 14 |
| O=c1[nH]cc(F)c(=O)[nH]1 [Adrucil (Fluorouracil)] | -16.3 |
| O=S(=O)(O)CCS [Mesna (Uromitexan, Mesnex)] | -0.811 |
| COC(=O)Nc1nc2cc(Sc3ccccc3)ccc2[nH]1 [Fenbendazole (Panacur)] | -8.52 |
| Oc1ccc(/C=C/c2cc(O)cc(O)c2)cc1 [Resveratrol] | 22.8 |
| NC(=O)c1ncn([C@@H]2O[C@H](CO)[C@@H](O)[C@H]2O)n1 [Ribavirin (Copegus)] | 12.3 |
| CCCCNc1cc(C(=O)O)cc(S(N)(=O)=O)c1Oc1ccccc1 [Bumetanide] | -2.16 |
| Nc1nc(Cl)nc2c1ncn2[C@@H]1O[C@H](CO)[C@@H](O)[C@@H]1F [Clofarabine] | -10.2 |
| COc1ccccc1N1CCN(CC(O)COc2cccc3ccccc23)CC1 (stereo not shown) [Naftopidil (Flivas)] | -8.14 |
| C[C@]12C=CC(=O)C=C1CC[C@@H]1[C@@H]2C(=O)C[C@@]2(C)[C@H]1CC[C@]2(O)C(=O)CO [Prednisone (Adasone)] | 28.4 |
| COc1cc([C@H]2Oc3cc([C@H]4Oc5cc(O)cc(O)c5C(=O)[C@@H]4O)ccc3O[C@@H]2CO)ccc1O [Silibinin (Silybin)] | 8.03 |
| COc1ccc([C@@H]2CC(=O)c3c(O)cc(O[C@@H]4O[C@H](CO[C@@H]5O[C@@H](C)[C@H](O)[C@@H](O)[C@H]5O)[C@@H](O)[C@H](O)[C@H]4O)cc3O2)cc1OC [Methyl-Hesperidin] | -2.33 |
| Nc1ncnc2c1ncn2[C@@H]1O[C@H](CO)[C@@H](O)[C@@H]1O [Vidarabine (Vira-A)] | 20.1 |
| Cc1ccc(C)c(OCCCC(C)(C)C(=O)O)c1 [Gemfibrozil (Lopid)] | 2.6 |
| C[C@H]1[C@H](OC(=O)CCC(=O)O)O[C@@H]2O[C@@]3(C)CC[C@H]4[C@H](C)CC[C@@H]1[C@@]24OO3 [Artesunate] | -3.35 |
| Cc1nnc(C(C)C)n1[C@@H]1C[C@H]2CC[C@@H](C1)N2CC[C@H](NC(=O)C1CCC(F)(F)CC1)c1ccccc1 [Maraviroc] | 2.4 |
| c1ccc2c(CC3=NCCN3)cccc2c1 [Naphazoline hydrochloride (Naphcon)] | -0.842 |
| O=C(O)CSCC(=O)NC1CCSC1=O (stereo not shown) [Erdosteine] | -0.838 |
| Cn1c(CCCC(=O)O)nc2cc(N(CCCl)CCCl)ccc21 [Bendamustine HCL] | 9.61 |

| Structure (SMILES) | inhibition at 10 µM [%] |
| --- | --- |
| Cc1onc(-c2ccccc2Cl)c1C(=O)N[C@@H]1C(=O)N2[C@@H]1SC(C)(C)[C@@H]2C(=O)O [Cloxacillin sodium (Cloxacap)] | 0.144 |
| COc1cc(CCC(C)=O)ccc1O [Vanillylacetone] | 7.76 |
| CC[C@]1(O)C[C@H]2CN(CCc3c([nH]c4ccccc34)[C@@](C(=O)OC)(c3cc4c(cc3OC)N(C=O)[C@H]3[C@@](O)(C(=O)OC)[C@H](OC(C)=O)[C@]5(CC)C=CCN6CC[C@]43[C@@H]65)C2)C1 [Vincristine] | -7.5 |
| CC(C)[C@]12O[C@H]1[C@@H]1O[C@]13[C@]1(O[C@H]1C[C@H]1C4=C(CC[C@@]13C)C(=O)OC4)[C@@H]2O [Triptolide] | -1.79 |
| C#C[C@]1(O)CC[C@H]2[C@@H]3CCc4cc(O)ccc4[C@H]3CC[C@@]21C [Ethinyl estradiol] | 57.3 |
| Cc1nc2n(c(=O)c1CCN1CCC(c3noc4cc(F)ccc34)CC1)CCCC2O (stereo not shown) [Paliperidone (Invega)] | -1.54 |
| CC(C(=O)O)c1cccc(C(=O)c2ccccc2)c1 (stereo not shown) [Ketoprofen (Actron)] | 30.2 |
| CCOc1nc2cccc(C(=O)OC(C)OC(=O)OC3CCCCC3)c2n1Cc1ccc(-c2ccccc2-c2nn[nH]n2)cc1 (stereo not shown) [Candesartan cilexetil (Atacand)] | 7.42 |
| CCOc1cc(CC(=O)N[C@@H](CC(C)C)c2ccccc2N2CCCCC2)ccc1C(=O)O [Repaglinide] | -4.69 |
| COCCOC(=O)C1=C(C)NC(C)=C(C(=O)OC(C)C)C1c1cccc([N+](=O)[O-])c1 (stereo not shown) [Nimodipine (Nimotop)] | -0.576 |
| N=C(N)NC(=O)c1nc(Cl)c(N)nc1N [Amiloride hydrochloride (Midamor)] | -0.812 |
| CC1=C(/C=C/C(C)=C/C=C/C(C)=C/C(=O)O)C(C)(C)CCC1 [Tretinoin (Aberela)] | -38.4 |
| Cc1cc(O)c2c(c1)C(=O)c1cc(O)cc(O)c1C2=O [Emodin] | -4.08 |
| CN(C)CCc1c[nH]c2ccc(C[C@H]3COC(=O)N3)cc12 [Zolmitriptan (Zomig)] | 41.2 |
| C[C@@H]1[C@H](O)[C@@H](C)/C=C/C=C/CC/C=C/C=C/C=C/C=C/[C@H](O[C@@H]2O[C@H](C)[C@@H](O)[C@H](N)[C@@H]2O)C[C@@H]2O[C@](O)(C[C@@H](O)[C@H](O)CC[C@@H](O)C[C@@H](O)C[C@@H](O)CC(=O)O[C@H]1C)C[C@H](O)[C@H]2C(=O)O [Nystatin (Mycostatin)] | 4 |
| OCc1ccc(O[C@@H]2O[C@H](CO)[C@@H](O)[C@H](O)[C@H]2O)cc1 [Gastrodin(Gastrodine)] | 3.84 |
| COc1cc([C@@H]2c3cc4c(cc3[C@@H](O[C@@H]3O[C@@H]5CO[C@@H](C)O[C@H]5[C@H](O)[C@H]3O)[C@H]3COC(=O)[C@H]23)OCO4)cc(OC)c1O [Etoposide (VP-16)] | -11.8 |
| Cc1ccc(Nc2nccc(N(C)c3ccc4c(C)n(C)nc4c3)n2)cc1S(N)(=O)=O [Pazopanib HCl] | -2.36 |
| CN1CCCC(n2nc(Cc3ccc(Cl)cc3)c3ccccc3c2=O)CC1 (stereo not shown) [Azelastine hydrochloride (Astelin)] | -2.32 |
| S=c1[nH]cnc2nc[nH]c12 [Mercaptopurine] | -8.52 |
| N=c1nc(N2CCCCC2)cc(N)n1O [Minoxidil] | -1.14 |
| Cc1cc2c(C(C)C)c(O)c(O)c(C=O)c2c(O)c1-c1c(C)cc2c(C(C)C)c(O)c(O)c(C=O)c2c1O [Gossypol] | -2.2 |
| C[C@H]1C[C@H]2[C@@H]3CCC4=CC(=O)C=C[C@]4(C)[C@H]3C(=O)C[C@]2(C)[C@@]1(O)C(=O)CO [Betapar (Meprednisone)] | 11.6 |
| Cn1c(CNc2ccc(C(=N)N)cc2)nc2cc(C(=O)N(CCC(=O)O)c3ccccn3)ccc21 [BIBR 953 (Dabigatran etexilate, Pradaxa)] | -1.4 |
